The numbers were not newly measured in Sander's compilation of Henry's law constants, which cites them from elsewhere.

“And” between values parts separate entries of the source, which are not always exact repeats. Equal entries are not always repeated.

The nature of the data set: Henry solubility constant Hcp at 298.15 K (mol/(m3 Pa)). As to conditions: cited value.
Where [1] appears, read: reference: Burkholder et al. (2015).
The mark [2] stands for this setting: reference: Burkholder et al. (2019).
Setting [3] is: reference: Sander et al. (2011).
Setting [4] is: reference: Sander et al. (2006).
[5] abbreviates: reference: Barcelo and Hennion (1997).
Setting [6] is: reference: Hine and Weimar (1965).
[7] abbreviates: reference: Fogg and Sangster (2003).
[8] abbreviates: reference: Gaffney and Senum (1984).

In the case of `O=C(O)C(Cl)Cl` [dichloroethanoic acid], the “Henry solubility constant Hcp” value by setting is: under setting [1], 1200; under setting [2], 1200; under setting [3], 1200.

In the case of `ClCCl` [dichloromethane], the “Henry solubility constant Hcp” value reads like this: (reference: Brockbank (2013)) 0.0037; under setting [1], 0.0039; under setting [2], 0.0039; (reference: Dilling (1977)) 0.0037; (reference: Dilling et al. (1975)) 0.0037; (reference: Goldstein (1982)) 0.0031. Further, the “Henry solubility constant Hcp” value by setting is: (reference: Harrison et al. (1993)) 0.0042 and 0.0034; under setting [4], 0.0036; under setting [3], 0.0036.

`ClC1=C(Cl)[C@]2(Cl)[C@@H]3[C@@H]4C[C@@H]([C@H]5O[C@@H]45)[C@@H]3[C@@]1(Cl)C2(Cl)Cl` [dieldrin]: the “Henry solubility constant Hcp” value under setting [5] is 0.0088.

On to `CCSSCC` [diethyl disulfide], for which the “Henry solubility constant Hcp” value runs as follows: under setting [1], 0.0037; under setting [2], 0.0037.

As to `CCOCC` [diethyl ether], the “Henry solubility constant Hcp” value is, setting by setting: (reference: Brockbank (2013)) 0.0099; under setting [1], 0.02; under setting [2], 0.0099.

`CCSCC` [diethyl sulfide]: the “Henry solubility constant Hcp” value was 0.0035 under setting [1] and 0.0035 under setting [2].

Consider `CCCCOCCOCCOCCCC` [diethylene glycol dibutyl ether], for which the “Henry solubility constant Hcp” value (reference: Brockbank (2013)) was 2.5.

On to `O=C(NC(=O)c1c(F)cccc1F)Nc1ccc(Cl)cc1` [diflubenzuron], for which the “Henry solubility constant Hcp” value under setting [5] is 21.

Turning to `FOF` [difluorine monoxide], the “Henry solubility constant Hcp” value (reference: Schäfer and Lax (1962)) is 2.9e-05.

As for `CCCCCCOC(=O)c1ccccc1C(=O)OCCCCCC` [dihexyl phthalate], the “Henry solubility constant Hcp” value (reference: Brockbank (2013)) is 8.3.

As to `CC(C)OC(C)C` [diisopropyl ether], the “Henry solubility constant Hcp” value (reference: Brockbank (2013)) was 0.0045.

On to `COC[C@H](C)N(C(=O)CCl)c1c(C)csc1C` [dimethenamid-p], for which the “Henry solubility constant Hcp” value (reference: MacBean (2012b)) is 2100.

Turning to `COCOC` [dimethoxymethane], the “Henry solubility constant Hcp” value (reference: Brockbank (2013)) is 0.061 and the “Henry solubility constant Hcp” value (reference: Pierotti et al. (1959)) was 0.057.

`COC` [dimethyl ether]: the “Henry solubility constant Hcp” value under setting [6] is 0.0098.

On to `COC(=O)c1ccccc1C(=O)OC` [dimethyl phthalate], for which the “Henry solubility constant Hcp” value (reference: Brockbank (2013)) is 51; the “Henry solubility constant Hcp” value (reference: Goldstein (1982)) was 29 and 30; the “Henry solubility constant Hcp” value (reference: McCarty (1980)) was 23.

Turning to `CNC` [dimethylamine], the “Henry solubility constant Hcp” value by setting is: (reference: Brockbank (2013)) 0.62; under setting [1], 0.55; under setting [2], 0.55.

In the case of `[CH3][Hg][CH3]` [dimethylmercury], the “Henry solubility constant Hcp” value is, setting by setting: (reference: Abraham et al. (2008)) 0.0021; (reference: WHO (1990)) 0.0013.

`CS(C)=O` [dimethylsulfoxide]: the “Henry solubility constant Hcp” value reads like this: (reference: Betterton (1992)) 14; (reference: Brockbank (2013)) 8000; under setting [1], 980; under setting [2], 980; under setting [4], 980; under setting [3], 980.

Consider `FN(F)N(F)F` [dinitrogen tetrafluoride], for which the “Henry solubility constant Hcp” value is, setting by setting: under setting [1], 8.4e-06; under setting [2], 8.4e-06; under setting [3], 8.4e-06.

For `CC(C)(C)c1cc([N+](=O)[O-])cc([N+](=O)[O-])c1O` [dinoterb], the “Henry solubility constant Hcp” value under setting [5] was 1.7.

Consider `c1ccc(Oc2ccccc2)cc1` [diphenyl ether], for which the “Henry solubility constant Hcp” value (reference: Brockbank (2013)) was 0.019.

Turning to `c1ccc(Nc2ccccc2)cc1` [diphenylamine], for the setting “reference: Howard et al. (1991)”, the “Henry solubility constant Hcp” value was 3.5.

For `c1ccc(Cc2ccccc2)cc1` [diphenylmethane], under “reference: Mackay et al. (1992b)”, the “Henry solubility constant Hcp” value was 1.

In the case of `CCCOCCC` [dipropyl ether], the “Henry solubility constant Hcp” value (reference: Brockbank (2013)) was 0.0029.

In the case of `CCCOC(=O)c1ccccc1C(=O)OCCC` [dipropyl phthalate], the “Henry solubility constant Hcp” value (reference: Brockbank (2013)) was 22.

Turning to `CCCNCCC` [dipropylamine], the “Henry solubility constant Hcp” value runs as follows: (reference: Brockbank (2013)) 0.21; under setting [1], 0.2; under setting [2], 0.2.

With `CCOP(=S)(OCC)SCCSCC` [disulfoton], the “Henry solubility constant Hcp” value by setting is: under setting [5], 0.045; (reference: Muir et al. (2004)) 11.

For the molecule `CN(C)C(=O)Nc1ccc(Cl)c(Cl)c1` [diuron], the “Henry solubility constant Hcp” value under setting [5] was 8.2.

`FC(F)(F)C(F)(F)C(F)(F)C(F)(F)C(F)(F)F` [dodecafluoropentane]: the “Henry solubility constant Hcp” value (reference: Brockbank (2013)) is 4.6e-08.

`CCN` [ethanamine]: the “Henry solubility constant Hcp” value reads like this: (reference: Brockbank (2013)) 0.84; under setting [1], 0.8; under setting [2], 0.8.

Turning to `CC#N` [ethanenitrile], the “Henry solubility constant Hcp” value (reference: Arijs and Brasseur (1986)) is 0.47; the “Henry solubility constant Hcp” value (reference: Brockbank (2013)) is 0.49; the “Henry solubility constant Hcp” value under setting [1] was 0.52; the “Henry solubility constant Hcp” value under setting [2] is 0.52; the “Henry solubility constant Hcp” value under setting [7] was 0.5; the “Henry solubility constant Hcp” value under setting [8] is 0.29. Further, the “Henry solubility constant Hcp” value by setting is: under setting [6], 0.29; (reference: Plyasunov et al. (2006)) 0.38; under setting [4], 0.52; under setting [3], 0.52.

Turning to `CCS` [ethanethiol], the “Henry solubility constant Hcp” value was 0.0028 under setting [1], 0.0028 under setting [2], 0.0028 under setting [4] and 0.0028 under setting [3].

Consider `CC(=O)OO` [ethanoic peroxyacid], for which the “Henry solubility constant Hcp” value is, setting by setting: under setting [1], 8.3; under setting [2], 8.3; under setting [3], 8.3.

Regarding `CCO` [ethanol], the “Henry solubility constant Hcp” value was 1.8 (reference: Brockbank (2013)); 1.9 under setting [1]; 1.9 under setting [2]; 1.8 (reference: Dohnal et al. (2006)); 1.9 (reference: Dubowski (1979)); 1.7 under setting [7]. The “Henry solubility constant Hcp” value is, setting by setting: under setting [8], 2; under setting [4], 2; under setting [3], 1.9; (reference: Schaffer and Daubert (1969)) 1.5; (reference: Timmermans (1960)) 1.6; (reference: Warneck (2006)) 1.9.

`C=C` [ethene]: the “Henry solubility constant Hcp” value under setting [1] was 5.9e-05; the “Henry solubility constant Hcp” value under setting [2] was 5.9e-05; the “Henry solubility constant Hcp” value (reference: Deno and Berkheimer (1960)) is 4.7e-05; the “Henry solubility constant Hcp” value (reference: Hayduk (1994)) is 4.7e-05; the “Henry solubility constant Hcp” value under setting [4] was 5.9e-05; the “Henry solubility constant Hcp” value under setting [3] was 5.9e-05.

Consider `C=COC(C)=O` [ethenyl ethanoate], for which the “Henry solubility constant Hcp” value is 0.02 (reference: Brockbank (2013)), 0.02 under setting [1], 0.02 under setting [2] and 0.017 (reference: Goldstein (1982)).

In the case of `C=Cc1ccccc1` [ethenylbenzene], the “Henry solubility constant Hcp” value runs as follows: (reference: Brockbank (2013)) 0.0036; under setting [7], 0.0038; (reference: Goldstein (1982)) 0.0038.

In the case of `CCOP(=S)(OCC)SCSP(=S)(OCC)OCC` [ethion], the “Henry solubility constant Hcp” value under setting [5] is 0.31.

Take `CCOC1Oc2ccc(OS(C)(=O)=O)cc2C1(C)C` (stereo unspecified) [ethofumesate]: the “Henry solubility constant Hcp” value under setting [5] was 45.

As for `CCOC(=O)C(C)(C)C` [ethyl 2,2-dimethylpropanoate], the “Henry solubility constant Hcp” value (reference: Brockbank (2013)) was 0.0064.

On to `CCOC(=O)C(C)C` [ethyl 2-methylpropanoate], for which the “Henry solubility constant Hcp” value (reference: Brockbank (2013)) was 0.015.

Regarding `CCOC(=O)CC(C)C` [ethyl 3-methylbutanoate], under “reference: Brockbank (2013)”, the “Henry solubility constant Hcp” value is 0.014.

Regarding `CCOC(=O)c1ccccc1` [ethyl benzoate], where the note is “reference: Brockbank (2013)”, the “Henry solubility constant Hcp” value was 0.17.

`CCOC(=O)CCl` [ethyl chloroethanoate]: the “Henry solubility constant Hcp” value (reference: Brockbank (2013)) is 0.26.

For `CCOO` [ethyl hydroperoxide], the “Henry solubility constant Hcp” value is, setting by setting: (reference: Brockbank (2013)) 3.3; under setting [1], 3.3; under setting [2], 3.3; under setting [3], 3.3.

As to `CCOC=O` [ethyl methanoate], the “Henry solubility constant Hcp” value was 0.033 (reference: Brockbank (2013)), 0.034 under setting [1], 0.034 under setting [2] and 0.034 under setting [3].

As to `CCSC` [ethyl methyl sulfide], the “Henry solubility constant Hcp” value runs as follows: under setting [1], 0.0042; under setting [2], 0.0042.

Take `CCCCC(=O)OCC` [ethyl pentanoate]: the “Henry solubility constant Hcp” value (reference: Meynier et al. (2003)) was 0.027.

Regarding `CCOC(=O)CC` [ethyl propanoate], the “Henry solubility constant Hcp” value (reference: Brockbank (2013)) was 0.038.

With `C=CC(=O)OCC` [ethyl propenoate], the “Henry solubility constant Hcp” value (reference: Brockbank (2013)) is 0.039.

On to `CCCOCC` [ethyl propyl ether], for which the “Henry solubility constant Hcp” value (reference: Howard and Meylan (1997)) was 0.0077.

In the case of `CCOC(C)(C)C` [ethyl tert-butyl ether], the “Henry solubility constant Hcp” value (reference: Brockbank (2013)) is 0.0072.

`CCc1ccccc1` [ethylbenzene]: the “Henry solubility constant Hcp” value is, setting by setting: (reference: Brockbank (2013)) 0.0013; under setting [7], 0.0014; (reference: Goldstein (1982)) 0.0016.

On to `CCC1CCCCC1` [ethylcyclohexane], for which the “Henry solubility constant Hcp” value (reference: Brockbank (2013)) was 2.1e-05.

For the molecule `CC1(C(=O)Nc2ccc(O)c(Cl)c2Cl)CCCCC1` [fenhexamid], under “reference: MacBean (2012b)”, the “Henry solubility constant Hcp” value was 200000.
